According to patent US20260297042A1, “BIARYLAMIDE DERIVATIVES AND THEIR USE AS PKMYT1 INHIBITORS” (CANCER RESEARCH TECHNOLOGY LIMITED, priority 2023, published 2026):
pIC50: −log10 of the molar value. Where a name gives a salt, the structure may show the parent alone.

Key:
[1] = target: T1, Cellular PKMYT1 Biomarker CDK1 pT14 (Homo sapiens, UniProt Q99640); test: Inhibition of cellular PKMYT1 biomarker CDK1 pT14 in OVCAR 3 cells (immunoblot); format: cell-based; conditions: 20 hours incubation
T1 construct: read-out CDK1 phospho-T14 immunoblot
T1 sequence (Q99640 1-499): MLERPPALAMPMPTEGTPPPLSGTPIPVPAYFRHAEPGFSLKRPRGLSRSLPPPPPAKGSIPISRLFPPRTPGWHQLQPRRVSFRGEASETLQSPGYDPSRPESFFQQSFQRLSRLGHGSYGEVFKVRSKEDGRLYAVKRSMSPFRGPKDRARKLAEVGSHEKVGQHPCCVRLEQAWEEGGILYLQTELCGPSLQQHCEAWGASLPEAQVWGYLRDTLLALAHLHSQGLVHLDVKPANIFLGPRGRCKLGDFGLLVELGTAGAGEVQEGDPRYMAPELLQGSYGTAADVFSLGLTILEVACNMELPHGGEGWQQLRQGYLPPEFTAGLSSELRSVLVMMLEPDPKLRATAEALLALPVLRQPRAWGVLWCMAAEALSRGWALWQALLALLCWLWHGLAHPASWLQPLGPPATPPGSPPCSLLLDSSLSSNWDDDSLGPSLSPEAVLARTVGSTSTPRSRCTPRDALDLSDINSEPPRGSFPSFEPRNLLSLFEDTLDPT
How it was run: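 Confluent OVCAR 3 cells treated with a compound concentration range for 20 h at 37 °C. Lysates analysed by automated capillary immunoblot for CDK1 phospho-T14, with vinculin, fluorescence detection; IC50 by regression.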

[2] = tested on: OVCAR 3 cells; test: Cancer cell line proliferation assay, ATP-based cell viability (Cell Titre Glow), OVCAR 3 (CCNE1-amplified); conditions: KYSE30 (normal CCNE1) GI50 vs. OVCAR 3 (CCNE1-amplified) GI50
How it was run: (§1)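 Cells were treated with PKMYT1 inhibitors, then proliferation was assessed with CellTiter-Glo and luminescence read. GI50 values were fitted from the resulting data.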

[3] = target: T2, WEE1 (Homo sapiens, UniProt P30291); test: Selectivity versus WEE1 assay (ADP-Glo enzymatic assay); format: biochemical; conditions: for pIC50: ADP-Glo; for PKMYT1 vs. WEE1 selectivity: fold difference in selectivity for PKMYT1 over WEE1
T2 construct: purchased Thermo Fisher PR7373A
T2 sequence (P30291 whole entry): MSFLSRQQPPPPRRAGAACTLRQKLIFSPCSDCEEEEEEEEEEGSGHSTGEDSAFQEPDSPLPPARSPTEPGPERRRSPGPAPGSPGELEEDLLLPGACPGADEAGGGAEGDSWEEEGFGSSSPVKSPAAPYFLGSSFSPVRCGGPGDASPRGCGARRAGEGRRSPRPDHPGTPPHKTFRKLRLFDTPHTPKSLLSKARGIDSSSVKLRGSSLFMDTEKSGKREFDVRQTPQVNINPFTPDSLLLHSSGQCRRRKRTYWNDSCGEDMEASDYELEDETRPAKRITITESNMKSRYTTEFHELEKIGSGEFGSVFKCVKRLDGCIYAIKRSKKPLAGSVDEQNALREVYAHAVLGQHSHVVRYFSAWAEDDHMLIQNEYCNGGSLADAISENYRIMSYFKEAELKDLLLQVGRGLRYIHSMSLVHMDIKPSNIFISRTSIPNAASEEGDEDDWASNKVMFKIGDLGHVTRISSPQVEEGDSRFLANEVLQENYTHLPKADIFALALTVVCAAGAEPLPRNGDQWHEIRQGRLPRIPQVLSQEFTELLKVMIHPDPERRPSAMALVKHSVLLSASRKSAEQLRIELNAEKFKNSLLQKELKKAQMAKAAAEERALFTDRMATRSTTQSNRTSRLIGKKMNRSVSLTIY
How it was run: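 15 nM WEE1, 30 µM ATP, 50 mM HEPES pH 7.5, 10 mM MgCl2, 1 mM EGTA, 0.01% Brij-35, 1% DMSO; 60 min, 26° C; ADP-Glo luminescence; IC50 from curve fit, replicates within 3-fold, r2 >0.9.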

[4] = tested on: KYSE-30 cells; test: Cancer cell line proliferation assay, ATP-based cell viability (Cell Titre Glow), KYSE-30 (normal CCNE1); conditions: Homo sapiens, KYSE-30 cells (normal CCNE1), concentration that achieves 50% cell growth proliferation inhibition, read-out: KYSE30 Gl50
How it was run: as §1

[5] = target: T3, Human PKMYT1 (Homo sapiens, UniProt Q99640); test: PKMYT1 biochemical ADP-Glo enzymatic assay; conditions: ADP-Glo
T3 construct: Human PKMYT1 75-362 was cloned as a TEV cleavable 6xHis fusion; 6xHis (TEV cleavable) (cleaved yes); made in house; host or cells: bacterial cells
T3 sequence (Q99640 75-362): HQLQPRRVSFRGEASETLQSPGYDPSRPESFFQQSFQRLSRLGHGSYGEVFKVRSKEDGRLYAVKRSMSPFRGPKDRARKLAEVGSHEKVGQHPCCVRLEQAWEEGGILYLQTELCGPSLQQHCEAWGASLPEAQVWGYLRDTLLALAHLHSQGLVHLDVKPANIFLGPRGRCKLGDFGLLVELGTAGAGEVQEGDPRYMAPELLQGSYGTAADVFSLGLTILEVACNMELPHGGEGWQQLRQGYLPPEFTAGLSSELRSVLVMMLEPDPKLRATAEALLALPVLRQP
How it was run: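 PKMYT1 75-362 (His-cleaved, bacterial) 15 nM; ATP 500 µM; HEPES pH 7.5, MgCl2, EGTA, Brij-35, 1% DMSO; 60 min, 26 °C; ADP-Glo Max luminescence; 10-pt 3-fold titration → IC50; replicates within 3-fold, r2 >0.9.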

[6] = PKMYT1 kinase domain 15 nM, banded values
[7] = 15 nM WEE1, 60 minutes at 26° C., banded
[8] = banded, ">N" = at least in this band but could be higher
[9] = 15 nM PKMYT1 kinase domain, 500 µM ATP, 60 minutes at 26° C., banded

| SMILES | pIC50 [1] | Selectivity ratio KYSE30 Gl50 vs. OVCAR3 Gl50 [2] | pIC50 ([3]; WEE1 15 nM, banded values) | PKMYT1 vs. WEE1 selectivity ([3]; banded) | GI50 [4] [nM] | pIC50 [5, 6] | pIC50 [3, 7] | PKMYT1 vs. WEE1 selectivity [3, 8] | pIC50 [5, 9] |
| --- | --- | --- | --- | --- | --- | --- | --- | --- | --- |
| Cc1ccc(O)c(C)c1NC(=O)c1cnc(Nc2nn(CCF)cc2Cl)s1 [BAA-582, 2-((4-chloro-1-(2-fluoroethyl)-1H-pyrazol-3-yl)amino)-N-(3-hydroxy-2,6-dimethylphenyl)thiazole-5-carboxamide] | > 7.00 | Y (>20 fold) | 4.96 to 6.00 | X (100-<1000 fold) | 500 to 5000 | > 7.30 | – | – | – |
| Cc1ccc(O)c(C)c1NC(=O)c1cnc(Nc2nc(N3CCOCC3)ccc2Cl)s1 [BAA-410, 2-((3-chloro-6-morpholinopyridin-2-yl)amino)-N-(3-hydroxy-2,6-dimethylphenyl)thiazole-5-carboxamide] | > 7.00 | Y (>20 fold) | 4.96 to 6.00 | X (100-<1000 fold) | 500 to 5000 | > 7.30 | – | – | – |
| CCc1cn(CC#N)nc1Nc1ncc(C(=O)Nc2c(C)ccc(O)c2C)s1 [BAA-590, 2-((1-(cyanomethyl)-4-ethyl-1H-pyrazol-3-yl)amino)-N-(3-hydroxy-2,6-dimethylphenyl)thiazole-5-carboxamide. TFA salt] | > 7.00 | Y (>20 fold) | 6.00 to 7.30 | W (10-<100 fold) | > 5000 | > 7.30 | – | – | – |
| COc1ccnc(Nc2ncc(C(=O)Nc3c(C)ccc(O)c3C)s2)c1 [BAA-418, N-(3-hydroxy-2,6-dimethylphenyl)-2-((4-methoxypyridin-2-yl)amino)thiazole-5-carboxamide] | > 7.00 | Y (>20 fold) | 4.96 to 6.00 | X (100-<1000 fold) | 500 to 5000 | > 7.30 | – | – | – |
| Cc1ccc2c(Nc3ncc(C(=O)Nc4c(C)ccc(O)c4C)s3)nn(C)c2c1 [BAA-451, 2-((1,6-dimethyl-1H-indazol-3-yl)amino)-N-(3-hydroxy-2,6-dimethylphenyl)thiazole-5-carboxamide] | > 7.00 | Y (>20 fold) | 4.96 to 6.00 | X (100-<1000 fold) | > 5000 | > 7.30 | – | – | – |
| Cc1cn(-c2cnn(C)c2)nc1Nc1ncc(C(=O)Nc2c(C)ccc(O)c2C)s1 [BAA-385, 2-((1′′,4-dimethyl-1′H-[1,4′-bipyrazol]-3-yl)amino)-N-(3-hydroxy-2,6-dimethylphenyl)thiazole-5-carboxamide] | > 7.00 | Y (>20 fold) | – | – | 500 to 5000 | – | 4.96 to 6.00 | X (100-<1000 fold) | > 7.30 |
| Cc1cn(-c2ccn(C)n2)nc1Nc1ncc(C(=O)Nc2c(C)ccc(O)c2C)s1 [BAA-398, 2-((1′,4-dimethyl-1′H-[1,3′-bipyrazol]-3-yl)amino)-N-(3-hydroxy-2,6-dimethylphenyl)thiazole-5-carboxamide] | > 7.00 | Y (>20 fold) | 4.96 to 6.00 | X (100-<1000 fold) | 500 to 5000 | > 7.30 | – | – | – |
| Cc1ccc(O)c(C)c1NC(=O)c1cnc(Nc2nn(CC#N)cc2Br)s1 [BAA-586, 2-((4-bromo-1-(cyanomethyl)-1H-pyrazol-3-yl)amino)-N-(3-hydroxy-2,6-dimethylphenyl)thiazole-5-carboxamide] | > 7.00 | X (3-20 fold) | 6.00 to 7.30 | W (10-<100 fold) | 500 to 5000 | > 7.30 | – | – | – |
| CCc1c[nH]nc1Nc1ncc(C(=O)Nc2c(C)ccc(O)c2C)s1 [BAA-594, 2-((4-Ethyl-1H-pyrazol-3-yl)amino)-N-(3-hydroxy-2,6-dimethylphenyl)thiazole-5-carboxamide] | > 7.00 | Y (>20 fold) | 4.96 to 6.00 | X (100-<1000 fold) | > 5000 | > 7.30 | – | – | – |
| Cc1ccc(O)c(C)c1NC(=O)c1cnc(Nc2cc(C(F)(F)F)cc(Cl)n2)s1 [BAA-321, 2-((6-chloro-4-(trifluoromethyl)pyridin-2-yl)amino)-N-(3-hydroxy-2,6-dimethylphenyl)thiazole-5-carboxamide] | 6.00 to 7.00 | Y (>20 fold) | – | – | > 5000 | – | < 4.96 | X (100-<1000 fold) | 6.00 to 7.30 |
| Cc1ccc(NC(=O)C(C)(C)C)nc1Nc1ncc(C(=O)Nc2c(C)ccc(O)c2C)s1 [BAA-323, N-(3-hydroxy-2,6-dimethylphenyl)-2-((3-methyl-6-pivalamidopyridin-2-yl)amino)thiazole-5-carboxamide] | > 7.00 | Y (>20 fold) | – | – | 500 to 5000 | – | < 4.96 | Y (1000-5000 fold) | > 7.30 |
| Cc1cn(-c2cnn(C(F)F)c2)nc1Nc1ncc(C(=O)Nc2c(C)ccc(O)c2C)s1 [BAA-394, 2-((1′-(difluoromethyl)-4-methyl-1′H-[1,4′-bipyrazol]-3-yl)amino)-N-(3-hydroxy-2,6-dimethylphenyl)thiazole-5-carboxamide] | > 7.00 | Y (>20 fold) | 4.96 to 6.00 | X (100-<1000 fold) | 500 to 5000 | > 7.30 | – | – | – |
| Cc1ccc(O)c(C)c1NC(=O)c1cnc(Nc2cccc(NC(=O)c3ccc(F)cc3)n2)s1 [BAA-320, 2-((6-(4-fluorobenzamido)pyridin-2-yl)amino)-N-(3-hydroxy-2,6-dimethylphenyl)thiazole-5-carboxamide] | > 7.00 | Y (>20 fold) | – | – | 500 to 5000 | – | < 4.96 | Y (1000-5000 fold) | > 7.30 |
